Measurements taken from patent US20240009191A1, “METHOD AND COMPOSITION FOR THE TREATMENT OF DISEASE” (DIMERIX BIOSCIENCE PTY LTD, priority 2019, published 2024).

Molecular target: T1, AT1R-CXCR2 heteromer (Homo sapiens, UniProt P25025+P30556)
T1 sequence (P25025 1-360): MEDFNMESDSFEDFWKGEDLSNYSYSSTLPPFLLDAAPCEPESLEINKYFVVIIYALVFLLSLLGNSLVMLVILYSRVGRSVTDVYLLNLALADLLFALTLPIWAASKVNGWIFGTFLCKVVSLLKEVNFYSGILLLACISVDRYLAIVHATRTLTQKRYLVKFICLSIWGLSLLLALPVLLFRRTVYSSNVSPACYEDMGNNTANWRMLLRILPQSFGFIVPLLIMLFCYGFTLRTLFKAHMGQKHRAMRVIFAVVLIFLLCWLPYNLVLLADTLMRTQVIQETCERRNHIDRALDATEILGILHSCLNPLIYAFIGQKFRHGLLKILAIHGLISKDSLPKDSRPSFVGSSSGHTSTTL
T1 sequence (P30556 1-359): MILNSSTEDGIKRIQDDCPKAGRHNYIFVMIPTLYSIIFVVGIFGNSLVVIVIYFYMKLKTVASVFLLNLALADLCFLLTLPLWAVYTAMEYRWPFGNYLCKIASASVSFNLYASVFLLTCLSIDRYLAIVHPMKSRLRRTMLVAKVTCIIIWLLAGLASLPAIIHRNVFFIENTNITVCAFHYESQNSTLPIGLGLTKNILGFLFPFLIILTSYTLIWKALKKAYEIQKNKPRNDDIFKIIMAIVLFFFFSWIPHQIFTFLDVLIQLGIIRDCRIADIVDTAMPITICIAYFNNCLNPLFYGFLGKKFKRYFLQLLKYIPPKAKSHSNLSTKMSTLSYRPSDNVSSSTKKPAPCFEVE
Assay: BRET Gi coupling (Receptor-HIT), CXCR2/Rluc8, Venus/mGsi and HA-AT1R, HEK293FT cells
Assay type: cell-based
Protocol: HEK293FT cells were seeded in 6-well plates at a density of approximately 700,000 cells/well and maintained at 37° C., 5% CO2 in Complete Media (DMEM containing 0.3 mg/ml glutamine, 100 IU/ml penicillin and 100 μg/ml streptomycin (Gibco/Thermo Fisher)) supplemented with 10% fetal calf serum (FCS; Bovogen). […] BRET measurements were taken at 37° C. using the LUMlstarTM or CLARIOstarTM (BMG Labtech). Filtered light emissions were measured for 1 s in each of the 'donor wavelength window' (460-490 nm for LUMlstarTM or 410-490 nm for CLARIOstarTM) and 'acceptor wavelength window' (520-550 nm for LUMlstarTM or 520-620 nm for CLARIOstarTM). The BRET signal observed between interacting proteins is normalized by subtracting the background BRET ratio. This can be done in one of two ways (see Pfleger et al. (2006) Cell Signal 18:1664-1670; Pfleger et al. (2006) Nat Protoc 1:336-344): 1) the ratio of the 520-550 nm or 520-620 nm emission over the 460-490 nm or 410-490 nm emission for a cell sample containing only the donor construct is subtracted from the same ratio for a sample containing the interacting acceptor and donor fusion proteins; 2) the ratio of the 520-550 nm or 520-620 nm emission over the 460-490 nm or 410-490 nm emission for a cell sample treated with vehicle is subtracted from the same ratio for a second aliquot of the same cell sample treated with ligand. […]

## Angiotensin II [AngII]
  ligand-induced BRET signal, CXCR2/Rluc8 and Venus/mGsi: approximately 0.05
